Laboratory results published in patent US20210181182A1, “METHOD FOR IDENTIFICATION OF PERTURBAGENS OF PARTICULAR BIOLOGICAL PROCESSES AND CELL SYSTEMS WITHIN LIVING CELLS” (priority 2018, published 2021).
Counter-ions that a name gives are not always drawn. Marks after values point to notes of the source that are not given here.

Tested on: mitochondrial electron transport chain (mETC)
Assay: FACTORIAL assay: similarity of TFAP to the consensus (invariant) mETC TFAP
Type: cell-based, human
Conditions: 24 h

For Cc1ccc(-c2cc(C(F)(F)F)nn2-c2ccc(S(N)(=O)=O)cc2)cc1 [Celecoxib, reference compound], the “Pearson correlation with the mETC TFAP, r” value was 0.883.

Same assay, conditions: HepG2, 24 h incubation; each value at the concentration [uM]

In order of falling “Pearson correlation with the mETC TFAP, r” value:
1. COC(=O)Nc1ccc(Cl)c(Cl)c1 [Swep]  0.927
2. Dinocap  0.897
3. CO/C=C(/C(=O)OC)c1ccccc1Oc1cc(Oc2ccccc2C#N)ncn1 [Azoxystrobin]  0.894
4. Mancozeb  0.867
5. Chlorpyrifos oxon  0.827
6. Cc1cc(C)c(C2=C(OC(=O)CC(C)(C)C)C3(CCCC3)OC2=O)c(C)c1 [Spiromesifen]  0.816

Tested on: mitochondria membrane potential
Assay: not given
Conditions: HepG2, 1-hour incubation at concentrations below 60 μM; cited from earlier work

In order of falling “MMP assay hitCall” value:
1. COC(=O)Nc1ccc(Cl)c(Cl)c1 [Swep]  1
2. Cc1cc(C)c(C2=C(OC(=O)CC(C)(C)C)C3(CCCC3)OC2=O)c(C)c1 [Spiromesifen]  1
3. Chlorpyrifos oxon  1
4. Dinocap  1
5. C=C(C)[C@H]1Cc2c(ccc3c2O[C@@H]2COc4cc(OC)c(OC)cc4[C@@H]2C3=O)O1 [Rotenone, reference compound]  1
6. CCC(C)c1cc([N+](=O)[O-])cc([N+](=O)[O-])c1OC(=O)C=C(C)C (stereo not drawn) [Binapacryl]  1
7. CCCCCCCCCC[N+](C)(C)CCCCCCCCCC.[Cl-] [Didecyldimethylammonium chloride]  1
8. Nc1ccc(/N=N/c2ccccc2)c(N)n1 [Phenazopyridine hydrochloride, reference compound]  1
9. CC(C)=CC1C(C(=O)OCN2C(=O)C3=C(CCCC3)C2=O)C1(C)C (stereo not drawn) [Tetramethrin]  1
10. O=C(Nc1cccc(C(F)(F)F)c1)c1cc(Br)cc(Br)c1O [Fluorosalan]  1
11. C#CCC1=C(C)C(OC(=O)C2C(C=C(C)C)C2(C)C)CC1=O (stereo not drawn) [Prallethrin]  1
12. CCCSP(=O)(OCC)Oc1ccc(Br)cc1Cl (stereo not drawn) [Profenofos]  1
13. CCOC(=O)Nc1cccc(OC(=O)Nc2ccccc2)c1 [Desmedipham]  1
14. COC(=O)N(OC)c1ccccc1COc1ccn(-c2ccc(Cl)cc2)n1 [Pyraclostrobin]  1
15. CCOP(=S)(OCC)SCn1c(=O)oc2cc(Cl)ccc21 [Phosalone]  1
16. CC(C)(c1ccc(O)cc1)c1ccc(O)cc1 [Bisphenol A]  1
17. CCOC(=O)N1CCC(=C2c3ccc(Cl)cc3CCc3cccnc32)CC1 [Loratadine, reference compound]  1
18. CCOc1cc(C(C)(C)C)ccc1C1COC(c2c(F)cccc2F)=N1 (stereo not drawn) [Etoxazole]  1
19. C=CCC1=C(C)C(OC(=O)C2C(C=C(C)C)C2(C)C)CC1=O (stereo not drawn) [Allethrin]  1
20. O=P(Oc1ccccc1)(Oc1ccccc1)Oc1ccccc1 [Triphenyl phosphate]  1
21. CC(C)Oc1cc(-n2nc(C(C)(C)C)oc2=O)c(Cl)cc1Cl [Oxadiazon]  1
22. CC#C[C@]1(O)CC[C@H]2[C@@H]3CCC4=CC(=O)CCC4=C3[C@@H](c3ccc(N(C)C)cc3)C[C@@]21C [Mifepristone, reference compound]  1
23. C[C@@]1(c2ccc(Oc3ccccc3)cc2)OC(=O)N(Nc2ccccc2)C1=O (racemic) [Famoxadone]  1
24. CCCc1ccc(O)cc1 [4-Propylphenol]  1
25. CCCCCCCCCc1ccc(O)cc1 [4-Nonylphenol]  1
26. Oc1c(Br)cc(Br)cc1Br [2,4,6-Tribromophenol]  1
27. CSC1=N[C@@](C)(c2ccccc2)C(=O)N1Nc1ccccc1 [Fenamidone]  1
28. O=C(OC1CCCCC1)c1ccccc1C(=O)OC1CCCCC1 [Dicyclohexyl phthalate]  1
29. Oc1ccc2c(c1)-c1ccccc1C2 [3-Hydroxyfluorene]  1
30. CCC(C)(C)c1cc(O)c(C(C)(C)CC)cc1O [2,5-Bis(2-methylbutan-2-yl)benzene-1,4-diol]  1
31. c1ccc(Nc2ccccc2)cc1 [Diphenylamine]  1
32. N#Cc1cc(I)c(O)c(I)c1 [Ioxynil]  1
33. CC[C@H](C)C(=O)O[C@H]1C[C@@H](C)C=C2C=C[C@H](C)[C@H](CC[C@@H]3C[C@@H](O)CC(=O)O3)[C@H]21 [Lovastatin, reference compound]  1
34. CC1COC(Cn2cncn2)(c2ccc(Oc3ccc(Cl)cc3)cc2Cl)O1 (stereo not drawn) [Difenoconazole]  1
35. CCOCn1c(-c2ccc(Cl)cc2)c(C#N)c(Br)c1C(F)(F)F [Chlorfenapyr]  1
36. CCC(=O)C=Cc1ccc(OC)cc1 [1-(4-Methoxyphenyl)-1-pentene-3-one]  0
37. COC(=O)/C=C\C(=O)OC [Dimethyl maleate]  0
38. COc1ccc(C(=CC(=O)N2CCOCC2)c2ccc(Cl)cc2)cc1OC [Dimethomorph]  0
39. CN1CCN(c2ccccc2/C=C2\SCCN(c3ccc(Cl)c(Cl)c3)C2=O)CC1 [Elzasonan]  0
40. COC(=O)c1ccccc1S(=O)(=O)NC(=O)Nc1nc(C)nc(OC)n1 [Metsulfuron-methyl]  0
41. CC(C)N(C(=O)COc1nnc(C(F)(F)F)s1)c1ccc(F)cc1 [Flufenacet]  0
42. COc1ccc(S(=O)(=O)N2C(=O)[C@@](c3ccccc3OC)(N3C[C@H](O)C[C@H]3C(=O)N(C)C)c3cc(Cl)ccc32)c(OC)c1 [Nelivaptan]  0
43. COc1cc(C)ccc1O [2-Methoxy-4-methylphenol]  0
44. CO[C@@H]1[C@H](OC(=O)NC(=O)CCl)CC[C@]2(CO2)[C@H]1[C@@]1(C)O[C@@H]1CC=C(C)C [TNP-470]  0
45. CCCCCCCCCCCCCC[N+](C)(C)C [Tetradonium bromide]  0
46. CNC(=O)Oc1cccc(N=CN(C)C)c1 [Formetanate hydrochloride]  0
47. CCC(C)Nc1c([N+](=O)[O-])cc(C(C)(C)C)cc1[N+](=O)[O-] (stereo not drawn) [Butralin]  0
48. Cl.ClCc1ccccn1 [2-(Chloromethyl)pyridine hydrochloride]  0
49. c1cc(OCC2CO2)ccc1Cc1ccc(OCC2CO2)cc1 (stereo not drawn) [Bis[4-(glycidyloxy)phenyl]methane]  0
50. Cl.ClCc1cccnc1 [3-(Chloromethyl)pyridine hydrochloride]  0
51. CC(C)(C)C(=O)CCl [1-Chloro-3,3-dimethyl-butan-2-one]  0
52. O=c1[nH]c2ccc([S+]([O-])CCN3CCC(Cc4ccc(F)cc4)CC3)cc2o1 (stereo not drawn) [Besonprodil]  0
53. c1cc(C(c2ccc(OCC3CO3)cc2)c2ccc(OCC3CO3)cc2)ccc1OCC1CO1 (stereo not drawn) [2,2′,2″-[Methanetriyltris(benzene-4,1-diyloxymethanediyl)]trioxirane]  0
54. CC1=C(C(=O)Nc2ccccc2)S(=O)(=O)CCO1 [Oxycarboxin]  0
55. C#CCN1C(=O)COc2cc(F)c(N3C(=O)C4=C(CCCC4)C3=O)cc21 [Flumioxazin]  0
56. C=CCOC(=O)/C=C\C(=O)OCC=C [Diprop-2-en-1-yl (2Z)-but-2-enedioate]  0
57. CCCCCCCCCCCCN1CCCC1=O [1-Dodecyl-2-pyrrolidinone]  0
58. C=CCc1ccc(OC(=O)Cc2ccccc2)c(OC)c1 [Eugenyl phenylacetate]  0
59. COC(=O)/C=C(\C)CCC=C(C)C [Methyl geranate]  0
60. CCCN(CC)CC1COC2(CCC(C(C)(C)C)CC2)O1 (stereo not drawn) [Spiroxamine]  0
61. CCCCN(CC)c1c([N+](=O)[O-])cc(C(F)(F)F)cc1[N+](=O)[O-] [Benfluralin]  0
62. CN=C=S [Methyl isothiocyanate]  0

In the case of CO/C=C(/C(=O)OC)c1ccccc1Oc1cc(Oc2ccccc2C#N)ncn1 [Azoxystrobin], the “MMP assay hitCall” value is listed as 0*.
For Mancozeb, the “MMP assay hitCall” value is given as 0*.
For CCc1cccc(CC)c1N(COC)C(=O)CCl [Alachlor], the “MMP assay hitCall” value is given as 0*.
For C(=NC1CCCCC1)=NC1CCCCC1 [Dicyclohexylcarbodiimide], the “MMP assay hitCall” value is listed as 0*.
In the case of CCOC(=O)/C=C\C(=O)OCC [Diethyl maleate], the “MMP assay hitCall” value is given as 0*.
For COC(=O)NC(=S)Nc1ccccc1NC(=S)NC(=O)OC [Thiophanate-methyl], the “MMP assay hitCall” value is listed as 0*.
For CCOP(=S)(OCC)SCSCC [Phorate], the “MMP assay hitCall” value is given as 0*.
For CO/N=C(/C(=O)OC)c1ccccc1COc1ccccc1C [Kresoxim-methyl], the “MMP assay hitCall” value is listed as 0*.
For COP(=O)(OC)OC=C(Cl)Cl [Dichlorvos], the “MMP assay hitCall” value is listed as 0*.

Same assay, conditions: cited from earlier work

In order of falling “MMP assay hitCall” value:
1. Oc1c(Cl)cc(Cl)c(Cl)c1Cc1c(O)c(Cl)cc(Cl)c1Cl [Hexachlorophene]  1
2. CCC[CH2][Sn]([Cl])([CH2]CCC)[CH2]CCC [Tributyltin chloride]  1
3. CN(C)NC(=O)CCC(=O)O [Daminozide]  0
